{
  "source": "patent US10232013B2",
  "about": "“Use of an antimicrobial peptide TP4 in treating a cancer” (Academia Sinica, priority 2016, dated 2019)",
  "assay": "MTS cell viability assay, M10",
  "format": "cell-based",
  "conditions": "human, M10 normal human mammary epithelial cells, mean±SD, read-out: Cellular toxicity (cell viability), MTS assay",
  "method": "Cell-lines used in this study were purchased from the Bioresource Collection and Research Center (BCRC) in and the cells were cultured by the standard cell culture procedures and conditions provided by the BCRC. MB231 (BCRC 60425), MB453 (BCRC 60429), and HDF cells were cultured as previously described by Ting et al. MCF7 […] cells were maintained in α-MEM medium (ThermoFisher Scientific) supplemented with 2 mM L-glutamine, 10% FBS, 0.1 mM non-essential amino acids, 1 mM sodium pyruvate, and antibiotics (100 U mL^−1 penicillin G and […] streptomycin). M10 (BCRC 60197) cells were maintained in α-MEM medium (ThermoFisher Scientific) supplemented with 10% FBS and antibiotics. With the exception of MB231 and MB453, all cells were cultured at 37° C. with 5% CO2. For the cell viability and transfection assay, 1×10^4 cells [5×10^3 M10 cells were seeded and cultured for 48 h to allow the cells sufficient time for attachment] were seeded into the wells of a 96-well plate and cultured overnight. For the transfection assays, cells were transfected with 0.1-0.4 μg FOSB/FOSAB expression plasmid (Origene Technology Inc.) and cell viability was determined after 72 h. The transfection efficiencies (number of cells expressing eGFP/all cells) of the MB231 transfection assays were determined by observing ten randomly selected fields (from three independent transfections) of control GFP plasmid transfections under an inverted microscope (Olympus, IX71) coupled to a digital camera (Olympus DP80), using an […] (LCPlanFI 20×/0.40 Ph1). CellSens standard software (Olympus) was used for image acquisition. During the drug treatment assay, inhibitors (PD98059, BAPTA-AM, and AlP II) were added 30 min prior to TP4, and cell viability was determined at indicated time-points. Transfection was performed using LipofectAMINE™ 3000 (ThermoFisher Scientific), according to the manufacturer's recommendations. Knock-down cells were generated by transducing MB231 cells with pre-synthesized FOSB (or control) shRNA lentiviral particles (Santa Cruz Biotechnology), and selecting puromycin-resistant cells in accordance with the manufacturer's standard protocol. MB231 or M10 cells stably expressing eGFP or mOrange2 were generated through transfection with peGFP-puromycin or pmOrange2-C1 plasmid, followed by puromycin (5 μg mL^−1) or G418 (500 μg mL^−1) selection as described above.\nCell viability was quantitatively analyzed using the CellTiter-Glo® Luminescent Cell Viability Assay kit (ATP assay) and CellTiter 96® AQueous Non-Radioactive Cell Proliferation Assay kit (MTS assay) (Promega) in accordance with the manufacturer's protocol. For MTS assay, 1×10^4 cells were seeded into the wells of a 96-well plate and cultured overnight [5×10^3 M10 cells were seeded and cultured for 48 h to enable sufficient well attachment]. Cells were subsequently treated with different doses of TP4 (2.5-20 μg mL^−1) and harvested at the indicated time-points (3-24 h). Reaction mixtures (20 μL: MTS+PMS, using a ratio 20:1) were directly added to the cells, and the plates were incubated for 3 h at 37° C. Absorbance at 490 nm is directly proportional to the number of living cells in culture and was measured using a photometer (SpectraMax® i3, Molecular Devices). ATP assay was performed as previously described by Ting et al. Lactate dehydrogenase (LDH) assays were performed by quantitatively measuring cell lysis with a Cytotoxicity Detection Kit^PLUS (LDH) (Roche) in accordance with the manufacturer's protocol. The LDH standard was purchased from Cayman Chemical. Briefly, 1×10^4 cells were seeded into the wells of a 96-well plate and cultured overnight. Culture media were replaced with fresh medium containing 1% FBS and cells were subsequently treated with different doses of TP4 (2.5-20 μg mL^−1). Supernatants were harvested at 3 h. […]",
  "note": "Where no end group is shown, it is not given here.",
  "data": [
    {"sequence": "FIHHIIGGLFSAGKAIHRLIRRRRR [TP4, tilapia piscidin 4]", "values": [
      {"measurement": "viability at 3 h, 2.5 μg/mL", "setting": "M10, TP4 2.5 μg/mL, 3 h", "value": "101 ± 4.23", "unit": "%"},
      {"measurement": "viability at 6 h, 2.5 μg/mL", "setting": "M10, TP4 2.5 μg/mL, 6 h", "value": "94.8 ± 7.52", "unit": "%"},
      {"measurement": "viability at 12 h, 2.5 μg/mL", "setting": "M10, TP4 2.5 μg/mL, 12 h", "value": "96 ± 5.66", "unit": "%"},
      {"measurement": "viability at 24 h, 2.5 μg/mL", "setting": "M10, TP4 2.5 μg/mL, 24 h", "value": "94 ± 3.81", "unit": "%"},
      {"measurement": "viability at 3 h, 5 μg/mL", "setting": "M10, TP4 5.0 μg/mL, 3 h", "value": "97.1 ± 4.9", "unit": "%"},
      {"measurement": "viability at 6 h, 5 μg/mL", "setting": "M10, TP4 5.0 μg/mL, 6 h", "value": "92 ± 5.12", "unit": "%"},
      {"measurement": "viability at 12 h, 5 μg/mL", "setting": "M10, TP4 5.0 μg/mL, 12 h", "value": "92.6 ± 4.99", "unit": "%"},
      {"measurement": "viability at 24 h, 5 μg/mL", "setting": "M10, TP4 5.0 μg/mL, 24 h", "value": "91.2 ± 3.99", "unit": "%"},
      {"measurement": "viability at 3 h, 10 μg/mL", "setting": "M10, TP4 10.0 μg/mL, 3 h", "value": "90.8 ± 4.76", "unit": "%"},
      {"measurement": "viability at 6 h, 10 μg/mL", "setting": "M10, TP4 10.0 μg/mL, 6 h", "value": "84 ± 7.47", "unit": "%"},
      {"measurement": "viability at 12 h, 10 μg/mL", "setting": "M10, TP4 10.0 μg/mL, 12 h", "value": "83.8 ± 4.27", "unit": "%"},
      {"measurement": "viability at 24 h, 10 μg/mL", "setting": "M10, TP4 10.0 μg/mL, 24 h", "value": "80.7 ± 5.72", "unit": "%"},
      {"measurement": "viability at 3 h, 15 μg/mL", "setting": "M10, TP4 15.0 μg/mL, 3 h", "value": "84.8 ± 5.83", "unit": "%"},
      {"measurement": "viability at 6 h, 15 μg/mL", "setting": "M10, TP4 15.0 μg/mL, 6 h", "value": "78.9 ± 5.57", "unit": "%"},
      {"measurement": "viability at 12 h, 15 μg/mL", "setting": "M10, TP4 15.0 μg/mL, 12 h", "value": "65.5 ± 6.68", "unit": "%"},
      {"measurement": "viability at 24 h, 15 μg/mL", "setting": "M10, TP4 15.0 μg/mL, 24 h", "value": "58.4 ± 6.8", "unit": "%"},
      {"measurement": "viability at 3 h, 20 μg/mL", "setting": "M10, TP4 20.0 μg/mL, 3 h", "value": "67.9 ± 5.16", "unit": "%"},
      {"measurement": "viability at 6 h, 20 μg/mL", "setting": "M10, TP4 20.0 μg/mL, 6 h", "value": "60.3 ± 4.97", "unit": "%"},
      {"measurement": "viability at 12 h, 20 μg/mL", "setting": "M10, TP4 20.0 μg/mL, 12 h", "value": "47.2 ± 8.42", "unit": "%"},
      {"measurement": "viability at 24 h, 20 μg/mL", "setting": "M10, TP4 20.0 μg/mL, 24 h", "value": "44 ± 4.5", "unit": "%"}
    ]}
  ]
}
